Data from the OPERA property sets (Mansouri et al. 2018).

SMILES | logP
O=C(Cc1ccccc1)N1CCCCC1 | 2.44
CC(C)N(C(=O)Cc1ccccc1)C(C)C | 3.1
Cc1ccc(C(=O)N(C)C)cc1 | 1.72
Cc1cccc(C(=O)N(C(C)C)C(C)C)c1 | 3
CC(C)N(C(=O)c1ccccc1Cl)C(C)C | 3
CCNC(=O)c1ccc(OC)cc1 | 1.14
CN(C)C(=O)c1ccccc1Cl | 1.54
CCN(CC)C(=O)CC1CCCCC1 | 3.12
O=C(CC1CCCCC1)N1CCCCC1 | 3.2
CCNC(=O)Cc1ccccc1 | 1
Cc1cccc(C(=O)N(C)C)c1 | 1.6
Cc1ccc(C(=O)N2CCCCC2)cc1 | 2.8
CCOc1ccccc1C(=O)N(CC)CC | 2.5
Cc1cccc(C(=O)N2CCCCC2)c1 | 2.6
CCNC(=O)c1ccc(C)cc1 | 1.38
COc1ccc(C(=O)N2CCCCC2)cc1 | 2.4

SMILES | logP
CC(C)N(C(=O)c1ccccc1)C(C)C | 2.5
CN(C)C(=O)CC1CCCCC1 | 2.19
Cc1ccc(C(=O)N(C(C)C)C(C)C)cc1 | 2.5
CCN(CC)C(=O)c1ccccc1Cl | 2.1
CCNC(=O)CC1CCCCC1 | 2.28
COc1ccc(C(=O)N(C(C)C)C(C)C)cc1 | 2.8
O=C(c1ccccc1)N1CCCCC1 | 2.2
CCNC(=O)c1ccccc1OCC | 2.4
CCNC(=O)c1cccc(C)c1 | 1.32
CN(C)C(=O)Cc1ccccc1 | 1.48
CCOc1ccccc1C(=O)N1CCCCC1 | 2.6
CCOc1ccccc1C(=O)N(C(C)C)C(C)C | 3
O=C(c1ccccc1Cl)N1CCCCC1 | 2.8
CCN(CC)C(=O)c1ccc(C)cc1 | 2.38
CCN(CC)C(=O)Cc1ccccc1 | 2.4
